In the NIST ThermoML archive (doi:10.1021/je700245a):

Experiment: xn = mol fraction of the nth substance listed
Details: 101 kPa, Liquid

CCO [ethanol] + CN(CCO)CCO
Sing-around technique in a fixed-path interferometer, x2 = 0
Details	speed of sound [m/s]
288.15 K	1179
293.15 K	1162
298.15 K	1144.9
303.15 K	1128
308.15 K	1111.1
313.15 K	1094.3

x2 = 0
Details	mass density [kg/m3]
288.15 K	793.6
293.15 K	789.35
298.15 K	785.06
303.15 K	780.76
308.15 K	776
313.15 K	772.03

CCO [ethanol] + OCCN(CCO)CCO
x2 = 0
Details	mass density [kg/m3]	speed of sound [m/s]
288.15 K	793.6	1179
293.15 K	789.35	1162
298.15 K	785.06	1144.9
303.15 K	780.76	1128
308.15 K	776	1111.1
313.15 K	772.03	1094.3

OCCN(CCO)CCO [triethanolamine] + CCO
Details	mass density [kg/m3]	speed of sound [m/s]
288.15 K, x1 = 0.0075	799.61	1185.2
288.15 K, x1 = 0.0184	808.53	1193.4
288.15 K, x1 = 0.0304	818	1202.1
288.15 K, x1 = 0.0622	840.61	1225.5
288.15 K, x1 = 0.1385	889.41	1277
288.15 K, x1 = 0.2275	935.37	1333.2
288.15 K, x1 = 0.335	979.49	1397
288.15 K, x1 = 0.4675	1021.75	1453.1
288.15 K, x1 = 0.6413	1064.29	1528
288.15 K, x1 = 0.779	1091.59	1558.4
288.15 K, x1 = 0.8537	1104.43	1597.9
288.15 K, x1 = 0.9328	1116.76	1617.3
288.15 K, x1 = 1	1126.19	1640.5
293.15 K, x1 = 0.0075	795.43	1168.3
293.15 K, x1 = 0.0184	804.51	1176.9
293.15 K, x1 = 0.0304	813.73	1185.9
293.15 K, x1 = 0.0622	836.37	1210
293.15 K, x1 = 0.1385	885.58	1262.7
293.15 K, x1 = 0.2275	931.77	1320
293.15 K, x1 = 0.335	976.06	1385
293.15 K, x1 = 0.4675	1018.53	1442.5
293.15 K, x1 = 0.6413	1061.37	1516.6
293.15 K, x1 = 0.779	1088.73	1546.8
293.15 K, x1 = 0.8537	1101.67	1585.3
293.15 K, x1 = 0.9328	1114.01	1604.6
293.15 K, x1 = 1	1123.42	1625.6
298.15 K, x1 = 0.0075	791.34	1151.4
298.15 K, x1 = 0.0184	800.35	1160.4
298.15 K, x1 = 0.0304	809.59	1170
298.15 K, x1 = 0.0622	832.35	1194.4
298.15 K, x1 = 0.1385	881.74	1248.6
298.15 K, x1 = 0.2275	928.14	1307.1
298.15 K, x1 = 0.335	972.67	1373.1
298.15 K, x1 = 0.4675	1015.52	1431.6
298.15 K, x1 = 0.6413	1058.61	1505.9
298.15 K, x1 = 0.779	1086.14	1536.4
298.15 K, x1 = 0.8537	1099.23	1574.3
298.15 K, x1 = 0.9328	1111.63	1593.8
298.15 K, x1 = 1	1120.99	1614.5
303.15 K, x1 = 0.0075	786.78	1134.6
303.15 K, x1 = 0.0184	796.27	1143.9
303.15 K, x1 = 0.0304	805.5	1153.8
303.15 K, x1 = 0.0622	828.41	1178.9
303.15 K, x1 = 0.1385	877.88	1234.5
303.15 K, x1 = 0.2275	924.44	1294.3
303.15 K, x1 = 0.335	969.17	1361.4
303.15 K, x1 = 0.4675	1012.27	1420.9
303.15 K, x1 = 0.6413	1055.67	1496
303.15 K, x1 = 0.779	1083.38	1526.6
303.15 K, x1 = 0.8537	1096.33	1564.5
303.15 K, x1 = 0.9328	1108.88	1584.2
303.15 K, x1 = 1	1118.21	1604.5
308.15 K, x1 = 0.0075	782.53	1117.9
308.15 K, x1 = 0.0184	791.61	1127.4
308.15 K, x1 = 0.0304	801.05	1137.7
308.15 K, x1 = 0.0622	824.11	1163.4
308.15 K, x1 = 0.1385	873.56	1220.4
308.15 K, x1 = 0.2275	920.24	1281.5
308.15 K, x1 = 0.335	965.2	1349.9
308.15 K, x1 = 0.4675	1008.69	1410.5
308.15 K, x1 = 0.6413	1052.55	1486.6
308.15 K, x1 = 0.779	1080.43	1517.4
308.15 K, x1 = 0.8537	1093.46	1555.6
308.15 K, x1 = 0.9328	1106.09	1575.4
308.15 K, x1 = 1	1115.38	1595.5
313.15 K, x1 = 0.0075	778.51	1101.2
313.15 K, x1 = 0.0184	787.72	1111.1
313.15 K, x1 = 0.0304	797.32	1121.6
313.15 K, x1 = 0.0622	820.47	1148
313.15 K, x1 = 0.1385	869.89	1206.4
313.15 K, x1 = 0.2275	916.68	1268.8
313.15 K, x1 = 0.335	961.76	1338.4
313.15 K, x1 = 0.4675	1005.44	1400.1
313.15 K, x1 = 0.6413	1049.55	1477.3
313.15 K, x1 = 0.779	1077.53	1508.5
313.15 K, x1 = 0.8537	1090.66	1547
313.15 K, x1 = 0.9328	1103.23	1567.1
313.15 K, x1 = 1	1112.57	1586
